From PubChem BioAssay AID330 (DTP/NCI, 2004)
Several values for one entry are separate records, joined by “and”; a condition that tells them apart may be missing. Identical values can stand only once. Toxic doses and inconclusive results are not listed.

Test system: P388 leukemia ip, CD2F1 mice, survival T/C
Experiment: NCI In Vivo Anticancer Drug Screen. Data for tumor model P388 Leukemia (intraperitoneal) in CD2F1 (CDF1) mice
Conditions: endpoint: median survival time, higher = longer survival
Summary of the method: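 Mice carrying the transplanted tumor received test compound or vehicle. Survival was recorded in each group, and the value is the treated-group measurement divided by that of the vehicle-treated control group.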

[1] = dose: 50.0 mg/kg/injection, schedule: Q01DX005 (ip), vehicle: saline with Tween-80
[2] = dose: 100.0 mg/kg/injection, schedule: Q01DX005 (ip), vehicle: saline with Tween-80
[3] = dose: 200.0 mg/kg/injection, schedule: Q01DX005 (ip), vehicle: saline with Tween-80
[4] = dose: 50.0 mg/kg/injection, schedule: Q01DX009 (ip), vehicle: Klucel (hydroxypropylcellulose) (HPC)
[5] = dose: 100.0 mg/kg/injection, schedule: Q01DX009 (ip), vehicle: Klucel (hydroxypropylcellulose) (HPC)
[6] = dose: 25.0 mg/kg/injection, schedule: Q01DX009 (ip), vehicle: saline with Tween-80
[7] = dose: 50.0 mg/kg/injection, schedule: Q01DX009 (ip), vehicle: saline with Tween-80
[8] = dose: 100.0 mg/kg/injection, schedule: Q01DX009 (ip), vehicle: saline with Tween-80
[9] = dose: 60.0 mg/kg/injection, schedule: Q01DX005 (ip), vehicle: saline with Tween-80
[10] = dose: 120.0 mg/kg/injection, schedule: Q01DX005 (ip), vehicle: saline with Tween-80
[11] = dose: 240.0 mg/kg/injection, schedule: Q01DX005 (ip), vehicle: saline with Tween-80
[12] = dose: 60.0 mg/kg/injection, schedule: Q01DX005 (ip), vehicle: Klucel (hydroxypropylcellulose) (HPC)
[13] = dose: 120.0 mg/kg/injection, schedule: Q01DX005 (ip), vehicle: Klucel (hydroxypropylcellulose) (HPC)
[14] = dose: 240.0 mg/kg/injection, schedule: Q01DX005 (ip), vehicle: Klucel (hydroxypropylcellulose) (HPC)
[15] = dose: 200.0 mg/kg/injection, schedule: Q01DX009 (ip), vehicle: saline with Tween-80

CC(C)=C[C@@H]1c2c(c3ccccc3n(C)c2=O)O[C@H]2c3c(c4ccccc4n(C)c3=O)OC(C)(C)[C@@H]12
T/C [1]: 99 % of control
T/C [2]: 100 % of control
T/C [3]: 100 % of control

NCCCCNC(c1ccccc1)C(O)c1ccccc1 (stereo unspecified)
T/C [4]: 100 % of control
T/C [5]: 99 % of control

Nc1nc(N)nc(N2CCCC2)n1
T/C [6]: 101 % of control
T/C [7]: 97 % of control
T/C [8]: 92 % of control

N#Cc1c(-c2ccc(F)cc2)c(-c2ccc(F)cc2)nn(CCO)c1=O
T/C (dose: 12.5 mg/kg/injection, schedule: Q04DX002 (ip), vehicle: distilled water + Tween-80): 98 % of control
T/C (dose: 25.0 mg/kg/injection, schedule: Q04DX002 (ip), vehicle: distilled water + Tween-80): 101 % of control and 108 % of control and 112 % of control
T/C (dose: 50.0 mg/kg/injection, schedule: Q01DX005 (ip), vehicle: distilled water + Tween-80): 117 % of control
T/C (dose: 100.0 mg/kg/injection, schedule: Q04DX002 (ip), vehicle: distilled water + Tween-80): 121 % of control and 166 % of control and 201 % of control
T/C (dose: 200.0 mg/kg/injection, schedule: Q01DX005 (ip), vehicle: distilled water + Tween-80): 155 % of control
T/C (dose: 200.0 mg/kg/injection, schedule: Q04DX002 (ip), vehicle: distilled water + Tween-80): 150 % of control
T/C (dose: 400.0 mg/kg/injection, schedule: Q01DX005 (ip), vehicle: distilled water + Tween-80): 238 % of control

CC1SC2(C(=O)Nc3ccccc32)N(c2ccc(Cl)cc2)C1=O (stereo unspecified)
T/C [9]: 101 % of control
T/C [10]: 103 % of control
T/C [11]: 96 % of control

COc1ccc2c(NCCCCCCCCNc3c4ccccc4nc4cc(OC)ccc34)c3ccccc3nc2c1
T/C (dose: 0.62 mg/kg/injection, schedule: Q01DX009 (ip), vehicle: other): 176 % of control
T/C (dose: 3.75 mg/kg/injection, schedule: Q01DX009 (ip), vehicle: other): 157 % of control
T/C (dose: 7.5 mg/kg/injection, schedule: Q01DX009 (ip), vehicle: other): 100 % of control

COC(=O)C1=C(C)NC(=O)NC1c1ccc(OC)cc1 (stereo unspecified)
T/C (dose: 100.0 mg/kg/injection, schedule: Q04DX003 (ip), vehicle: saline with Tween-80): 95 % of control
T/C (dose: 200.0 mg/kg/injection, schedule: Q04DX003 (ip), vehicle: saline with Tween-80): 95 % of control
T/C (dose: 400.0 mg/kg/injection, schedule: Q04DX003 (ip), vehicle: saline with Tween-80): 100 % of control

Cc1ccc(SCc2cn(C3CC(O)C(CO)O3)c(=O)[nH]c2=O)cc1 (stereo unspecified)
T/C [12]: 99 % of control
T/C [13]: 95 % of control
T/C [14]: 92 % of control

CCOC(=O)CC1=CS/C(=C(\C#N)C(=O)OCC)N1c1ccccc1
T/C [1]: 100 % of control
T/C [2]: 100 % of control
T/C [3]: 100 % of control

CC(/C=C/c1cccc(C)c1)=N\NC(N)=O
T/C [12]: 107 % of control
T/C [13]: 104 % of control
T/C [14]: 115 % of control

Nc1nc(-c2cc3cc(Cl)ccc3o2)cs1
T/C [4]: 101 % of control
T/C [5]: 101 % of control
T/C (dose: 200.0 mg/kg/injection, schedule: Q01DX009 (ip), vehicle: Klucel (hydroxypropylcellulose) (HPC)): 100 % of control

CN(C)C1=NN(Cc2ccccc2)C(=O)C1
T/C (dose: 50.0 mg/kg/injection, schedule: Q01DX009 (ip), vehicle: saline): 105 % of control
T/C (dose: 100.0 mg/kg/injection, schedule: Q01DX009 (ip), vehicle: saline): 103 % of control
T/C (dose: 200.0 mg/kg/injection, schedule: Q01DX009 (ip), vehicle: saline): 96 % of control

COc1ccc(Cl)c2c(N=Nc3ccccc3[N+](=O)[O-])c(O)[nH]c12
T/C (dose: 15.0 mg/kg/injection, schedule: Q01DX005 (ip), vehicle: saline with Tween-80): 103 % of control
T/C (dose: 30.0 mg/kg/injection, schedule: Q01DX005 (ip), vehicle: saline with Tween-80): 99 % of control
T/C [9]: 95 % of control
T/C [11]: 87 % of control

Cc1ccc(N=CNN(C)S(=O)(=O)c2ccc(C)cc2)cc1
T/C [12]: 92 % of control
T/C [13]: 108 % of control
T/C [14]: 90 % of control

CCOC(=O)C1=C(C)NC(SC)=NC1c1ccccc1 (stereo unspecified)
T/C [12]: 99 % of control
T/C [13]: 97 % of control
T/C [14]: 99 % of control

Cc1ccc(S(=O)(=O)SSN2CCCCC2)cc1
T/C [9]: 99 % of control
T/C [10]: 101 % of control
T/C [11]: 99 % of control

CC1(CSc2ccc3ccccc3c2)CC(=O)N1 (stereo unspecified)
T/C (dose: 100.0 mg/kg/injection, schedule: Q01DX001 (ip), vehicle: suspension in saline): 99 % of control
T/C (dose: 200.0 mg/kg/injection, schedule: Q01DX001 (ip), vehicle: suspension in saline): 99 % of control
T/C (dose: 400.0 mg/kg/injection, schedule: Q01DX001 (ip), vehicle: suspension in saline): 98 % of control

CN(C)c1ncnc2c1ccn2COCCO
T/C (dose: 50.0 mg/kg/injection, schedule: Q01DX005 (ip), vehicle: distilled water + alcohol): 100 % of control
T/C (dose: 100.0 mg/kg/injection, schedule: Q01DX005 (ip), vehicle: distilled water + alcohol): 98 % of control
T/C (dose: 200.0 mg/kg/injection, schedule: Q01DX005 (ip), vehicle: distilled water + alcohol): 107 % of control

Clc1nnn(-c2ccccc2)n1
T/C (dose: 62.5 mg/kg/injection, schedule: Q04DX002 (ip), vehicle: saline with Tween-80): 101 % of control
T/C (dose: 125.0 mg/kg/injection, schedule: Q04DX002 (ip), vehicle: saline with Tween-80): 100 % of control

COc1cccc2c1c(=O)c1cc([N+](=O)[O-])ccc1n2C
T/C (dose: 100.0 mg/kg/injection, schedule: Q01DX001 (ip), vehicle: saline with Tween-80): 100 % of control
T/C (dose: 200.0 mg/kg/injection, schedule: Q01DX001 (ip), vehicle: saline with Tween-80): 97 % of control
T/C (dose: 400.0 mg/kg/injection, schedule: Q01DX001 (ip), vehicle: saline with Tween-80): 86 % of control

CC(=O)NC1C(S[As](C)C)OC(COC(C)=O)C(OC(C)=O)C1OC(C)=O (stereo unspecified)
T/C (dose: 12.5 mg/kg/injection, schedule: Q01DX009 (ip), vehicle: saline with Tween-80): 102 % of control
T/C [6]: 113 % of control
T/C [7]: 116 % of control
T/C [15]: 115 % of control

C=C(Cn1cc(F)c(=O)n(CC(=C)C(=O)OCC)c1=O)C(=O)OCC
T/C (dose: 11.25 mg/kg/injection, schedule: Q04DX002 (ip), vehicle: distilled water + Tween-80): 100 % of control
T/C (dose: 22.5 mg/kg/injection, schedule: Q04DX002 (ip), vehicle: distilled water + Tween-80): 93 % of control
T/C (dose: 45.0 mg/kg/injection, schedule: Q04DX002 (ip), vehicle: distilled water + Tween-80): 95 % of control
T/C (dose: 90.0 mg/kg/injection, schedule: Q04DX002 (ip), vehicle: distilled water + Tween-80): 90 % of control
T/C (dose: 180.0 mg/kg/injection, schedule: Q04DX002 (ip), vehicle: distilled water + Tween-80): 86 % of control

C#CCN1CC(OC)Nc2c(O)cccc2C1=O (stereo unspecified) (tested in a mixture with another compound)
T/C (dose: 2.5 mg/kg/injection, schedule: Q01DX005 (ip), vehicle: water): 113 % of control
T/C (dose: 5.0 mg/kg/injection, schedule: Q01DX005 (ip), vehicle: water): 110 % of control and 113 % of control
T/C (dose: 10.0 mg/kg/injection, schedule: Q01DX005 (ip), vehicle: water): 123 % of control
T/C (dose: 20.0 mg/kg/injection, schedule: Q01DX005 (ip), vehicle: water): 119 % of control and 123 % of control

Nc1nc(CC(N)C(=O)O)c[se]1 (stereo unspecified)
T/C (dose: 60.0 mg/kg/injection, schedule: Q01DX005 (ip), vehicle: saline): 97 % of control
T/C (dose: 120.0 mg/kg/injection, schedule: Q01DX005 (ip), vehicle: saline): 100 % of control
T/C (dose: 240.0 mg/kg/injection, schedule: Q01DX005 (ip), vehicle: saline): 100 % of control

Cc1cccc2sc(NC(=O)Nc3cccc(F)c3)nc12
T/C (dose: 12.5 mg/kg/injection, schedule: Q01DX005 (ip), vehicle: saline with Tween-80): 93 % of control and 94 % of control
T/C (dose: 25.0 mg/kg/injection, schedule: Q01DX005 (ip), vehicle: saline with Tween-80): 100 % of control and 96 % of control
T/C [1]: 94 % of control and 96 % of control
T/C [2]: 104 % of control and 89 % of control

CC1(C)C(C#N)C(=O)N(Cc2ccccc2)C(=O)C1C#N (stereo unspecified)
T/C [7]: 100 % of control
T/C [8]: 104 % of control
T/C [15]: 113 % of control
